Assay results as given in patent US10919902B2, “Hetero-halo inhibitors of histone deacetylase” (Alkermes, Inc., priority 2015, dated 2021).

System: SH-SY5Y cells
Assay: Cell assay: SH-SY5Y cells, HDAC-Glo 2 reagent
Format: cell-based
Conditions: Homo sapiens, 5 h incubation, CI-994 at 100 uM = 100% inhibition
Procedure: SH-SY5Y cells (Sigma) were cultured in Eagle's Modified Essential Medium supplemented with 10% fetal bovine serum and pen/strep. Twenty-four hours prior to compound dosing 20 uL of cells were plated in white 384 well plates at a density of 1,500 cells/well. Compounds were serially diluted in neat DMSO and then diluted 1:100 v/v into media without FBS and mixed. Media was removed from the plated cells and the diluted compounds in serum free media (1% v/v final DMSO) were added and incubated at 37° C. for five hours. Ten uL of HDAC-Glo 2 reagent with 0.1% Triton X-100 was then added, the plate was mixed and allowed to develop at room temperature for 100 minutes. Plates were then read with a Spectramax LMax luminometer employing a 0.4 s integration time. Dose response curves were constructed with normalized data where CI-994 at 100 uM was defined as 100% inhibition and DMSO alone as 0% inhibition.

EC50	Structure (SMILES)
500 to 5000 nM	CN1CCC(N2C[C@@H]3C(C(=O)Nc4nc(-c5ccc(F)cc5)ccc4N)[C@@H]3C2)CC1 (stereo partly drawn) [Compound 263]

Target: recombinant human HDACs (Homo sapiens)
Assay: HDAC enzymatic assay
Format: biochemical
Conditions: 5 nM HDAC enzyme, 5 h pre-incubation, 17 h reaction at 25° C.; isoform not given
Procedure: All recombinant human HDACs were purchased from BPS Bioscience. The substrate, FAM-TSRHK(AC)KL-CONH, was synthesized at NanoSyn. Final assay reactions contained 100 mM HEPES (pH 7.5), 50 mM KCl, 0.1% BSA, 0.01% Triton X-100, 1% DMSO, 1 uM substrate and 5 nM HDAC enzyme. Enzyme and compounds were pre-incubated at 25° C. for 5 hours and reactions were initiated by addition of substrate. 10 uL reactions were incubated for 17 hours at 25° C. and terminated by the addition of 40 uL of buffer containing 100 mM HEPES (pH 7.5), 0.1% BSA, 0.01% Triton X-100 and 0.05% SDS. Substrate and product peptides present in each sample were separated electrophoretically using the LabChip 3000 capillary electrophoresis instrument. Change in the relative fluorescence intensity of the substrate and product peaks reflects enzyme activity. Reaction progress was determined as the product to sum ratio (PSR):P/(S+P), where P is the peak height of the product peptide and S is the peak height of the substrate peptide. Reactions were performed in duplicate at 12 concentrations, (3× serial dilutions starting at 30 uM). IC50 values were calculated using a 4 Parameter Logistic Model.

Structure (SMILES)	IC50
COCc1cc2c(cn1)CN(C(=O)Nc1nc(-c3ccc(F)cc3)ccc1N)C2 [Compound 243]	100 to 500 nM

Same assay, conditions: 5 nM HDAC enzyme, 5 h pre-incubation, 17 h reaction at 25° C.; isoform not given; read-out: IC50

IC50	Structure (SMILES)
> 5000 nM	Nc1ccc(-c2ccc(F)cc2)nc1NC(=O)N1CC2CN(C3COC3)CC2C1 (stereo not drawn) [Compound 203]
100 to 500 nM	CN(C)Cc1cc2c(cn1)CN(C(=O)Nc1nc(-c3ccc(F)cc3)ccc1N)C2 [Compound 162]
> 5000 nM	Nc1cn(-c2ccccc2)nc1NC(=O)C1CCN(C2COC2)CC1 [Compound 359]
500 to 5000 nM	Nc1ccc(-n2cccn2)nc1NC(=O)N1Cc2cc(F)cnc2C1 [Compound 185]
100 to 500 nM	Nc1ccc(-c2ccc(F)cc2)nc1NC(=O)N1Cc2ccc(CN3CCC(C(F)(F)F)C3)cc2C1 (stereo not drawn) [Compound 408]
100 to 500 nM	CN(C)Cc1ccc2c(c1)CN(C(=O)Nc1nn(-c3ccccc3)cc1N)C2 [Compound 351]
> 5000 nM	Nc1ccc(-c2ccccc2)nc1NC(=O)C1CCN(Cc2cccnc2)CC1 [Compound 377]
100 to 500 nM	CN1CCc2sc(C(=O)Nc3nc(-c4ccc(F)cc4)ccc3N)nc2C1 [Compound 153]
500 to 5000 nM	Nc1ccc(-c2ccc(F)cc2)nc1NC(=O)N1CCN(C(=O)C2C[C@H]2c2ccccc2)CC1 (stereo partly drawn) [Compound 225]
500 to 5000 nM	Nc1ccc(-c2ccc(F)cc2)nc1NC(=O)N1CC2CCCC2C1 (stereo not drawn) [Compound 385]
100 to 500 nM	Nc1ccc(-c2ccc(F)cc2)nc1NC(=O)N1Cc2cnc(N3CCC3)cc2C1 [Compound 147]
500 to 5000 nM	COc1ccc(-c2ccc(N)c(NC(=O)N3Cc4ccncc4C3)n2)cc1 [Compound 173]
500 to 5000 nM	Nc1ccc(-c2ccc(OC(F)F)cc2)nc1NC(=O)N1Cc2nccnc2C1 [Compound 228]
100 to 500 nM	COC1CCN(Cc2ccc3c(c2)CN(C(=O)Nc2nc(-c4ccc(F)cc4)ccc2N)C3)C1 (stereo not drawn) [Compound 363]
100 to 500 nM	CN(C)Cc1ccc2c(c1)CN(C(=O)Nc1nc(-c3ccc(F)cc3)ccc1N)C2 [Compound 371]
> 5000 nM	Nc1ccc(-c2ccco2)nc1NC(=O)N1CC2CN(CCF)CC2C1 (stereo not drawn) [Compound 174]
500 to 5000 nM	COC[C@@H]1[C@H]2CN(C(=O)Nc3nc(-c4ccc(F)cc4)ccc3N)C[C@@H]12 [Compound 276]
> 5000 nM	Nc1ccc(-c2cccnc2)nc1NC(=O)N1CC2(CCNCC2)C1 [Compound 220]
> 5000 nM	Nc1ccc(-c2ccc(F)cc2)nc1NC(=O)N1C[C@@H]2[C@@H](CN3CCC3)[C@@H]2C1 [Compound 270]
> 5000 nM	Nc1ccc(-n2cccn2)nc1NC(=O)C1CN(Cc2ccccc2)C1 [Compound 205]

IC50	Structure (SMILES)
500 to 5000 nM	Nc1ccc(-n2cccn2)nc1NC(=O)N1Cc2ccncc2C1 [Compound 369]
500 to 5000 nM	COCc1ccc2c(c1)CN(C(=O)Nc1nc(-c3cccnc3)ccc1N)C2 [Compound 393]
100 to 500 nM	CC(C)Cc1cnc2c(c1)CN(C(=O)Nc1nc(-c3ccc(F)cc3)ccc1N)C2 [Compound 274]
500 to 5000 nM	Nc1ccc(-c2ccc(F)cc2)nc1NC(=O)N1Cc2cc(N3CCC3)cnc2C1 [Compound 254]
> 5000 nM	Nc1ccc(-c2ccccc2)nc1NC(=O)CN1CCn2cncc2C1 [Compound 194]
> 5000 nM	Nc1ccc(-c2ccc(F)cc2)nc1NC(=O)C1[C@H]2CN(C3COC3)C[C@@H]12 (stereo partly drawn) [Compound 239]
100 to 500 nM	CN1CCN(c2ccc3c(n2)CN(C(=O)Nc2nc(-c4ccc(F)cc4)ccc2N)C3)CC1 [Compound 391]
> 5000 nM	CN1CCC(COC(=O)Nc2nc(-c3cccnc3)ccc2N)CC1 [Compound 375]
500 to 5000 nM	Nc1ccc(-c2ccccc2)nc1NC(=O)N1CC2CC(NC3COC3)CC2C1 (stereo not drawn) [Compound 191]
500 to 5000 nM	CN1CC(CN2CC3CC(C(=O)Nc4nc(-c5ccc(F)cc5)ccc4N)CC3C2)C1 (stereo not drawn) [Compound 256]
> 5000 nM	CN1CC(C(=O)Nc2nc(-c3ccc(F)cc3)ccc2N)C1 [Compound 204]
> 5000 nM	Nc1ccc(-c2ccco2)nc1NC(=O)N1CC2CN(C3COC3)CC2C1 (stereo not drawn) [Compound 182]
100 to 500 nM	Nc1ccc(-c2ccc(F)cc2)nc1NC(=O)N1Cc2cc(N3CCOCC3)cnc2C1 [Compound 158]
100 to 500 nM	Nc1ccc(-c2ccc(F)cc2)nc1NC(=O)N1Cc2ccc(CO)cc2C1 [Compound 366]
> 5000 nM	CN(C)Cc1ccc2c(c1)CN(C(=O)Nc1nc(-c3ccc(Cl)s3)ccc1N)C2 [Compound 401]
500 to 5000 nM	CN1CCC(N2CCC(C(=O)Nc3nc(-c4ccc(F)cc4)ccc3N)CC2)CC1 [Compound 368]
> 5000 nM	Nc1ccc(-c2ccc(F)cc2)nc1NC(=O)C1[C@H]2CN(C3CCOCC3)C[C@@H]12 (stereo partly drawn) [Compound 264]
> 5000 nM	Nc1ccc(-n2cccn2)nc1NC(=O)N1CC2CC(N3CC(F)C3)CC2C1 (stereo not drawn) [Compound 190]
> 5000 nM	Cc1cc(F)ccc1-c1ccc(N)c(NC(=O)N2Cc3cnc(CN(C)C)cc3C2)n1 [Compound 261]
100 to 500 nM	CN1CCC(c2ccc3c(c2)CN(C(=O)Nc2nn(-c4ccccc4)cc2N)C3)CC1 [Compound 383]

IC50	Structure (SMILES)
500 to 5000 nM	Nc1ccc(-c2cccnc2)nc1NC(=O)c1nc2c(s1)CCN(CCF)C2 [Compound 164]
> 5000 nM	Nc1ccc(-c2ccc(F)cc2)nc1NC(=O)N1CC2CN(CC3CCOCC3)CC2C1 (stereo not drawn) [Compound 235]
100 to 500 nM	Nc1ccc(-c2ccc(F)cc2)nc1NC(=O)N1Cc2cc(CN3CCCC3)cnc2C1 [Compound 155]
500 to 5000 nM	CN1CCC(N2C[C@@H]3C(C(=O)Nc4nc(-c5ccc(F)cc5)ccc4N)[C@@H]3C2)CC1 (stereo partly drawn) [Compound 263]
100 to 500 nM	Nc1ccc(-c2ccc(F)cc2)nc1NC(=O)N1Cc2cc(CN3CCC3)cnc2C1 [Compound 272]
100 to 500 nM	CN(C)Cc1ccc2c(c1)CN(C(=O)Nc1nc(-c3cccs3)ccc1N)C2 [Compound 409]
100 to 500 nM	Nc1ccc(-c2cccs2)nc1NC(=O)N1Cc2nccnc2C1 [Compound 156]
> 5000 nM	Nc1ccc(-n2cccn2)nc1NC(=O)N1CC2CN(CCF)CC2C1 (stereo not drawn) [Compound 167]
100 to 500 nM	CN(C)Cc1ccc2c(c1)CN(C(=O)Nc1nc(-c3ccco3)ccc1N)C2 [Compound 365]
> 5000 nM	CN(C)[C@H]1[C@@H]2CN(C(=O)Nc3nc(-c4ccc(F)cc4)ccc3N)C[C@@H]21 [Compound 242]
> 5000 nM	Nc1ccc(-c2ccco2)nc1NC(=O)N1CC2CC(N3CC(F)C3)CC2C1 (stereo not drawn) [Compound 189]
500 to 5000 nM	CN1CCC(c2ccc3c(c2)CN(C(=O)Nc2nc(-c4ccc(F)cc4)ccc2N)C3)CC1 [Compound 387]
500 to 5000 nM	Nc1ccc(-c2cccnc2)nc1NC(=O)N1Cc2nccnc2C1 [Compound 214]
100 to 500 nM	Nc1ccc(-c2ccc(F)cc2)nc1NC(=O)N1Cc2cc(CN3CC(F)C3)cnc2C1 [Compound 275]
> 5000 nM	Nc1ccc(-c2ccccc2)nc1NC(=O)N1CCn2ccnc2C1 [Compound 197]
> 5000 nM	COc1cccc(CN2CCCC3(CCN(C(=O)Nc4nn(-c5ccc(F)cc5)cc4N)C3)C2)c1 (stereo not drawn) [Compound 124]
> 5000 nM	CN1CC2CN(C(=O)Nc3nc(-c4ccc(F)cc4)ccc3N)CC2C1 (stereo not drawn) [Compound 201]
100 to 500 nM	CN1CCN(c2ccc3c(c2)CN(C(=O)Nc2nc(-c4ccc(F)cc4)ccc2N)C3)CC1 [Compound 374]
100 to 500 nM	CN(C)Cc1cnc2c(c1)CN(C(=O)Nc1nc(-c3cccnc3)ccc1N)C2 [Compound 161]
> 5000 nM	Nc1ccc(-c2ccc(F)cc2)nc1NC(=O)N1CC2CN(C3CCOCC3)CC2C1 (stereo not drawn) [Compound 236]

Structure (SMILES)	IC50
CN1CC2CN(C(=O)Nc3nc(-n4cccn4)ccc3N)CC2C1 (stereo not drawn) [Compound 184]	> 5000 nM
